What is called EC50 is the concentration at which the effect is half-maximal.

41 compounds from patent US10968193B2, “Antidiabetic bicyclic compounds” (Merck Sharp & Dohme Corp., priority 2014, dated 2021) can be followed below.

The first assay deals with T1, human GPR40 (Homo sapiens, UniProt O14842).
T1 construct: expressed in transfected cells; host or cells: HEK cells stably expressing the aequorin reporter
T1 sequence (O14842 whole entry): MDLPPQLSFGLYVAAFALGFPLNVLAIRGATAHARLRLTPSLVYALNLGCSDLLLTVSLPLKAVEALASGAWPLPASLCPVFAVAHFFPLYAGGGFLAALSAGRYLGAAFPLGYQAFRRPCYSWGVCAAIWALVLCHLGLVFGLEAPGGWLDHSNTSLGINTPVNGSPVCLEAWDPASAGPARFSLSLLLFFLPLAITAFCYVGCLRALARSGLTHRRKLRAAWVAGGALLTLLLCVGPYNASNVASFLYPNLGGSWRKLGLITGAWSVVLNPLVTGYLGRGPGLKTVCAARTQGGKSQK
The assay is described as follows: Inositol Phosphate Turnover (IP1) Assay 3. Format: cell-based. The settings on record: HEK cells stably expressing human GPR40. The method, boiled down: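 HEK cells stably expressing human GPR40, plated 16 h before, were treated with compound for 60 min at 37 °C in stimulation buffer. IP1 measured by HTRF (665/620 nm ratio) against an IP1 standard curve; activity normalized to a reference compound, EC50 from 4-parameter fit.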
`COc1cc(-c2ccc(C3CCc4ccc([C@H](C5CCC5)[C@H](C)C(=O)O)cc4O3)cc2CN2CCCC2C)c(F)cn1` (some centres unmarked) [Example 102] yielded an EC50 of 0.07 nM.

`COc1cc(-c2ccc(C3CCc4ccc([C@H](C5CC5)[C@H](C)C(=O)O)cc4O3)nc2CN2CCCC2)c(F)cn1` (some centres unmarked) [Example 90] displayed a half-maximal effective concentration (EC50) of 9.5 nM.

Compound `COc1cc(-c2ccc(C3CCc4ccc([C@H](C5CC5)[C@H](C)C(=O)O)cc4O3)cc2CN2CCCCC23CC3)ccn1` (some centres unmarked) [Example 276] came in with an EC50 of 0.2 nM.

Regarding `COc1cc(-c2ccc(C3CCc4ccc([C@H](C5CC5)[C@H](C)C(=O)O)cc4O3)c(CN3[C@H](C)CC[C@H]3C)c2)ccn1` (some centres unmarked) [Example 116], the EC50 was 104 nM.

`CCN(C(C)C)C(C)c1cc(C2CCc3ccc([C@H](C4CC4)[C@H](C)C(=O)O)cc3O2)ccc1-c1ccnc(OC)c1` (single isomer, unassigned) [Example 248] gave an EC50 of 11.5 nM. Against the preceding compound, the EC50 is about 9-fold lower.

`COc1cc(-c2ccc(C3CCc4ccc([C@H](C5CC5)[C@H](C)C(=O)O)cc4O3)c(CN3[C@H](C)CC[C@@H]3C)c2)ccn1` (single isomer, unassigned) [Example 122a] yielded a half-maximal effective concentration (EC50) of 3.3 nM. This EC50 lies about 3.5-fold lower than the previous one.

On to `COc1cc(-c2ccc(C3CCc4ccc([C@H](C5CC5)[C@H](C)C(=O)O)cc4O3)cc2C(CN2CCCC2)OC)ccn1` (single isomer, unassigned) [Example 178], for which the EC50 is 136 nM. Compared with the last compound, the EC50 is about 41-fold higher.

Compound `CCN(Cc1cc(C2CCc3ccc([C@H](C4CC4)[C@H](C)C(=O)O)cc3O2)ccc1-c1cc(OC)ncc1F)C(C)(C)C` (some centres unmarked) [Example 228] registered an EC50 of 0.12 nM.

In turn, `COc1cc(-c2ccc(C3CCc4ccc([C@H](C5CC5)[C@H](C)C(=O)O)c(F)c4O3)cc2CN2CCCCC2)c(F)cn1` (single isomer, unassigned) [Example 201] yielded an EC50 of 4.4 nM.

The target in another assay is T1, human GPR40. The assay can be described thus: Inositol Phosphate Turnover (IP1) Assay 2. It counts as cell-based. The settings on record: HEK cells stably expressing human GPR40; 15,000 cells per well; compound acoustically transferred; CisBio IP-One kit. Here is the method: Human and mouse GPR40 stable cell-lines were generated in CHO cells stably expressing NFAT BLA (Beta-lactamase). A human GPR40 stable cell-line was generated in HEK cells stably expressing the aequorin expressing reporter. The expression plasmids were transfected using lipofectamine (Life Technologies) following manufacturer's instructions. Stable cell-lines were generated following drug selection.
Inositol Phosphate Turnover (IP1) Assay 2:
The assay was performed in 384-well format. HEK cells stably expressing human GPR40 were plated at 15,000 cells per well in growth medium (DMEM/10% fetal calf serum). Cell plates were then incubated 16 hours at 37 degrees in a 5% CO2 incubator.
Measurement of Inositol Phosphate Turnover (IP1) was performed using the CisBio IP-One kit (Part number 62IPAPEB). After the 16 hour incubation, the cells were washed with HEPES buffer and 10 ul of stimulation buffer (prepared as described in the kit) was added to each well. In a separate plate, compounds were diluted in DMSO (400-fold over the final concentration in the assay well) and 25 nl was acoustically transferred to the appropriate well in the assay cell plate. The plates were then incubated for 60 minutes at 37 degrees. 10 ul of detection buffer (also prepared as described in the IP-One kit) was added to each well and the plates were incubated for 60 minutes in the dark. The plates were then read in a Perkin Elmer EnVision or equivalent reader able to measure FRET. Fluorescent ratio of emission at 665 and 620 nm was then converted to IP1 concentration by back calculating from an IP1 standard curve prepared at the time of the assay.
Take `COc1cc(-c2ccc([C@H]3CCc4ccc([C@H](C5CC5)[C@H](C)C(=O)O)cc4O3)cc2CNCC(F)(F)F)c(F)cn1` [Example 149]: a half-maximal response (EC50) required 2.5 nM.

For `COc1cc(-c2ccc([C@@H]3CCc4ccc([C@H](C5CC5)[C@H](C)C(=O)O)cc4O3)cc2CN2CCCCC2)c(F)cn1` [Example 151], the EC50 was determined as 2 nM.

For the compound `CCOc1cc(-c2ccc(C3CCc4ccc([C@H](C5CC5)[C@H](C)C(=O)O)cc4O3)cc2CN2CCCC2)c(F)cn1` (mixture of isomers) [Example 74, (2S,3R)-3-cyclopropyl-3-(2-(4-(2-ethoxy-5-fluoropyridin-4-yl)-3-(pyrrolidin-1-ylmethyl)phenyl)chroman-7-yl)-2-methylpropanoic acid], the midpoint of the response, the EC50, lay at 9.3 nM.

On to `COc1cc(-c2ccc(C3CCc4ccc([C@H](C5CC5)[C@H](C)C(=O)O)cc4O3)cc2CN2CCC2C)c(F)cn1` (some centres unmarked) [Example 56], for which the response was half-maximal at 7 nM (EC50).

In turn, `COC[C@@H]1CCCN1Cc1cc([C@H]2CCc3ccc([C@H](C4CC4)[C@H](C)C(=O)O)cc3O2)ccc1-c1cc(OC)ncc1F` [Example 135] displayed an EC50 of 5 nM.

Turning to `COc1cc(-c2ccc(C3CCc4ccc([C@H](C5CC5)[C@H](C)C(=O)O)cc4O3)cc2CN2[C@H](C)COC[C@H]2C)c(F)cn1` (some centres unmarked) [Example 60], the midpoint of the response, the EC50, lay at 0.59 nM.

In the case of `COc1cc(-c2ccc([C@H]3CCc4ccc([C@H](C5CC5)[C@H](C)C(=O)O)cc4O3)cc2CN2CCC(C)(C)CC2)c(F)cn1` [Example 169], the EC50 turned out to be 1.7 nM.

Turning to `COc1cc(-c2ccc(C3CCc4ccc([C@H](C5CC5)[C@H](C)C(=O)O)cc4O3)cc2CN2CCOCC23CCC3)c(F)cn1` (mixture of isomers) [Example 71], a half-maximal effect (EC50) was put at 0.7 nM.

`CCN(CC)Cc1cc([C@@H]2CCc3ccc([C@H](C4CC4)[C@H](C)C(=O)O)cc3O2)ccc1-c1cc(OC)ncc1F` [Example 159] came in with an EC50 of 3.3 nM.

For the compound `COc1cc(-c2ccc(C3CCc4ccc([C@H](C5CC5)[C@H](C)C(=O)O)cc4O3)cc2CN2CC[C@H](C(F)(F)F)C2)c(F)cn1` (single isomer, unassigned) [Example 29], the EC50 stood at 0.8 nM.

Consider `COc1cc(-c2ccc(C3CCc4ccc([C@H](C5CC5)[C@H](C)C(=O)O)cc4O3)cc2CN2CC(C)(C#N)C2)c(F)cn1` (mixture of isomers) [Example 67], for which the EC50 stood at 15 nM.

As for `COc1cc(-c2ccc(C3CCc4ccc([C@H](C5CCC5)[C@H](C)C(=O)O)cc4O3)cc2CN(C)C)c(F)cn1` (single isomer, unassigned) [Example 94], the half-maximal effective concentration (EC50) stood at 1.8 nM.

For `COc1cc(-c2ccc(C3CCc4ccc([C@H](C5CC5)[C@H](C)C(=O)O)cc4O3)cc2CN(C)CC(F)(F)F)c(F)cn1` (single isomer, unassigned) [Example 21], the EC50 was 0.76 nM.

As for `COc1cc(-c2ccc(C3CCc4ccc([C@H](C5CCC5)[C@H](C)C(=O)O)cc4O3)cc2CN(C)C)c(F)cn1` (single isomer, unassigned) [Example 95], a half-maximal response (EC50) required 1.8 nM.

As to `COc1cc(-c2ccc(C3CCc4ccc([C@H](C5CC5)[C@H](C)C(=O)O)cc4O3)cc2CN2CC(F)C2)c(F)cn1` (mixture of isomers) [Example 47], the EC50 is 3.5 nM.

`COc1cc(-c2ccc(C3CCc4ccc([C@H](C5CC5)[C@H](C)C(=O)O)cc4O3)nc2CN2CCOCC2)c(F)cn1` (mixture of isomers) [Example 12] came in with an EC50 of 60 nM. This EC50 is about 17-fold higher than that of the compound before.

In turn, `COc1cc(-c2ccc(C3CCc4ccc([C@H](C5CC5)[C@H](C)C(=O)O)cc4O3)cc2CN2CCCCC2)c(F)cn1` (mixture of isomers) [Example 63] registered an EC50 of 2.3 nM.

As for `COc1cc(-c2ccc(C3CCc4ccc([C@H](C5CC5)[C@H](C)C(=O)O)cc4O3)cc2CN(C2CC2)C2COC2)c(F)cn1` (mixture of isomers) [Example 53], a half-maximal effect (EC50) was put at 1.7 nM.

The compound `COc1cc(-c2ccc([C@H]3CCc4ccc([C@H](C5CC5)[C@H](C)C(=O)O)cc4O3)cc2CN2CCCC(C)(C)C2)c(F)cn1` [Example 142] had an EC50 of 1.1 nM.

`COc1cc(-c2ccc(C3CCc4ccc([C@H](C5CC5)[C@H](C)C(=O)O)cc4O3)cc2[C@@H](C)N(C)C)c(F)cn1` (stereo partly drawn) [Example 83, (2S,3R)-3-cyclopropyl-3-((R)-2-(3-((R)-1-(dimethylamino)ethyl)-4-(5-fluoro-2-methoxypyridin-4-yl)phenyl)chroman-7-yl)-2-methylpropanoic aid]: the EC50 was determined as 3 nM. Against the preceding compound, the EC50 is about 2.7-fold higher.

Take `COc1cc(-c2ncc([C@H]3CCc4ccc([C@H](C5CC5)[C@H](C)C(=O)O)cc4O3)nc2CN2CCCC2)c(F)cn1` (single isomer, unassigned) [Example 110b]: the EC50 was found to be 139 nM. Compared with the last compound, the EC50 is about 46-fold higher.

`COc1cc(-c2ccc([C@@H]3CCc4ccc([C@H](C5CC5)[C@H](C)C(=O)O)cc4O3)cc2CN2CCCC[C@@H]2C)c(F)cn1` [Example 154] registered an EC50 of 1.3 nM.

`COC[C@H]1CCCN1Cc1cc([C@H]2CCc3ccc([C@H](C4CC4)[C@H](C)C(=O)O)cc3O2)ccc1-c1cc(OC)ncc1F` [Example 163] returned an EC50 of 3.3 nM.

`COc1cc(-c2ccc([C@H]3CCc4ccc([C@H](C5CC5)[C@H](C)C(=O)O)cc4O3)cc2CN2CCCCC2(C)C)c(F)cn1` [Example 166] displayed a 50% effective concentration (EC50) of 0.3 nM.

Take `COc1cc(-c2ccc(C3CCc4ccc([C@H](C5CC5)[C@H](C)C(=O)O)cc4O3)cc2CN2CCC(F)(F)CC2)c(F)cn1` (mixture of isomers) [Example 46]: the midpoint of the response, the EC50, lay at 1 nM.

As for `COc1cc(-c2ccc(C3CCc4ccc([C@H](C5CC5)[C@H](C)C(=O)O)cc4O3)cc2CN2CCCC(OC)C2)c(F)cn1` (some centres unmarked) [Example 48], the EC50 is 3.6 nM.

For `COc1cc(-c2ccc(C3CCc4ccc([C@H](C5CC5)[C@H](C)C(=O)O)cc4O3)cc2CN2CC[C@H](F)C2)c(F)cn1` (some centres unmarked) [Example 15], the midpoint of the response, the EC50, lay at 1.1 nM.

`COc1cc(-c2ccc(C3CCc4ccc([C@H](C5CC5)[C@H](C)C(=O)O)cc4O3)cc2CN(C)C2CC2)c(F)cn1` (mixture of isomers) [Example 57] gave an EC50 of 0.18 nM.

As to `COc1cc(-c2ccc(C3CCc4ccc([C@H](C5CC5)[C@H](C)C(=O)O)cc4O3)cc2CN2CCCC2)c(F)cn1` (single isomer, unassigned) [Example 9b], a half-maximal effect (EC50) was put at 3.4 nM.

`COc1cc(-c2ccc([C@H]3CCc4ccc([C@H](C5CC5)[C@H](C)C(=O)O)cc4O3)cc2[C@@H](C)N(C)C)c(F)cn1` [Example 81, (2S,3R)-3-cyclopropyl-3-((R)-2-(3-((R)-1-(dimethylamino)ethyl)-4-(5-fluoro-2-methoxypyridin-4-yl)phenyl)chroman-7-yl)-2-methylpropanoic acid] had an EC50 of 4 nM.

Regarding `COc1cc(-c2ccc(C3CCc4ccc([C@H](C5CC5)[C@H](C)C(=O)O)cc4O3)cc2CN(C)CC(F)(F)F)c(F)cn1` (single isomer, unassigned) [Example 22], the EC50 was 0.46 nM.

Regarding `COc1cc(-c2ccc(C3CCc4ccc([C@H](C5CC5)[C@H](C)C(=O)O)cc4O3)cc2CN(C)CC(F)(F)F)c(F)cn1` (some centres unmarked) [Example 20], the response was half-maximal at 0.84 nM (EC50).
